Read-outs that look alike come from different tables or passages of the source.
Tests used:
[1] = system: NL4-3, a T-cell adapted HIV-1 strain, X4 wild type virus; test: microbe, parasite or virus in culture; type: cell-based
Excerpt: (§1) NL4-3 is a T-cell adapted HIV-1 strain, a wild type virus; PI—R is HIV-1M46I/L63P/V82P/I84V, an HIV-1 strain resistant to multiple protease inhibitors; and FHR-2 is an HIV-1 strain resistant to DSB (2).

[2] = system: FHR-2, an HIV-1 strain resistant to DSB (2); test: microbe, parasite or virus in culture; type: cell-based
Excerpt: as §1

MT-4 cells = test: Cell growth inhibition (cytotoxicity) of uninfected cells; type: cell-based; conditions: table title: MT-4 cells; uninfected H9 cell growth; read-out: IC50 (concentration that inhibits uninfected cell growth by 50%)
[3] = system: PI-R, HIV-1M46I/L63P/V82P/I84V, resistant to multiple protease inhibitors; test: microbe, parasite or virus in culture; type: cell-based
Excerpt: as §1

HIV fusion = test: Anti-HIV fusion activity (preliminary, data not shown); type: cell-based; conditions: preliminary results
Excerpt: as §1

[4] = Cell growth inhibition (cytotoxicity) of uninfected cells; type: cell-based; conditions: human, uninfected MT-4 cells; table title: MT-4 cells; uninfected H9 cell growth; read-out: IC50 (concentration that inhibits uninfected cell growth by 50%)
HIV in H9 lymphocyte = conditions: cited from earlier work
[5] = MT-4 cells, NL4-3 wild type HIV-1 strain, read-out: EC50, NL4-3 (concentration that inhibits viral replication by 50%)
[6] = MT-4 cells, DSB-resistant HIV-1 strain, — = no suppression at 5 μM, read-out: EC50, FHR-2 (concentration that inhibits viral replication by 50%)
[7] = MT-4 cells, multi-protease-inhibitor resistant HIV-1 strain, read-out: EC50, PI-R (concentration that inhibits viral replication by 50%)

Structure (SMILES) | EC50 [1, 5] | EC50 [2, 6] | IC50 (MT-4 cells) | EC50 [3, 7] | anti-HIV fusion activity (HIV fusion) | EC50 ([1]; Human immunodeficiency virus 1, NL43, MT4, read-out: EC50, NL4-3 (concentration that inhibits viral replication by 50%)) | EC50 ([3]; Human immunodeficiency virus 1, MT4, read-out: EC50, PI-R (concentration that inhibits viral replication by 50%)) | EC50 ([2]; Human immunodeficiency virus 1, MT4, read-out: EC50, FHR-2 (concentration that inhibits viral replication by 50%)) | IC50 [4] | EC50, anti-HIV activity (HIV in H9 lymphocyte)
Cc1cn([C@H]2C[C@H](N=[N+]=[N-])[C@@H](CO)O2)c(=O)[nH]c1=O [AZT, reference compound] | 13 nM | 190 nM | > 37500 nM | – | – | – | – | – | – | –
CC(C)C[C@H](NC(=O)[C@]12CCC(C)(C)C=C1[C@H]1CC[C@@H]3[C@@]4(C)CC[C@H](OC(=O)CC(C)(C)C(=O)O)C(C)(C)[C@@H]4CC[C@@]3(C)[C@]1(C)CC2)C(=O)O [Compound 8, N-[3β-(3′,3′-Dimethylsuccinoxy)olean-18-en-28-oyl]-L-leucine] | 5.7 nM | 130 nM | > 14300 nM | 21 nM | exhibit anti-HIV fusion activity | – | – | – | – | –
CC(C)CC(CO)NC(=O)[C@]12CCC(C)(C)C=C1[C@H]1CC[C@@H]3[C@@]4(C)CC[C@H](OC(=O)CC(C)(C)C(=O)O)C(C)(C)[C@@H]4CC[C@@]3(C)[C@]1(C)CC2 (stereo partly drawn) [Compound 7, N-[3β-(3′,3′-Dimethylsuccinoxy)olean-18-en-28-oyl]-(1-hydroxy-methyl-3-methyl-butyl)-amide] | 45 nM | 2780 nM | > 14600 nM | 88 nM | exhibit anti-HIV fusion activity | – | – | – | – | –
C=C(C)[C@@H]1CC[C@]2(C(=O)O)CC[C@]3(C)[C@H](CC[C@@H]4[C@@]5(C)CC[C@H](OC(=O)CC(C)(C)C(=O)O)C(C)(C)[C@@H]5CC[C@]43C)[C@@H]12 [DSB (2), 3-O-(3′,3′-dimethylsuccinyl)-betulinic acid, reference compound] | – | – | – | – | – | 96 nM | 430 nM | > 5000 nM | > 5000 nM | –
CC1(C)C=C2[C@H]3CC[C@@H]4[C@@]5(C)CCC(=O)C(C)(C)[C@@H]5CC[C@@]4(C)[C@]3(C)CC[C@@]2(C(=O)O)CC1 [moronic acid (3), moronic acid] | – | – | – | – | – | – | – | – | – | < 0.1 µg/mL

From patent US7282521B2, “Anti-retroviral moronic acid derivatives” (priority 2004, dated 2007)
